Data taken from the PolyMetriX glass transition set.
± gives the standard deviation of the reports.

glass transition temperature	Compound
208.00 °C	*Oc1ccc(NCC(=O)c2ccc(Sc3ccc(C(=O)CNc4ccc(*)cc4)cc3)cc2)cc1 (repeat unit)
319.00 °C	*Nc1ccc(-c2ccc(NC(=O)c3cc(C(*)=O)cc(S(=O)(=O)c4ccccc4)c3)cc2)cc1 (repeat unit)
-5.00 °C	*O[Si](*)(C)CCCCCCn1c2ccccc2c2ccccc21 (repeat unit)
71.00 °C	*CC(*)C(=O)Oc1ccc(C(C)(C)C)cc1 (repeat unit)
161.00 °C	*CC(O)COc1ccc(C(C)(C)c2ccc(OCC(O)COc3ccc(C4(c5ccc(O*)cc5)c5ccccc5-c5ccccc54)cc3)cc2)cc1 (repeat unit)
237.10 °C	*C(=O)c1ccc2c(c1)C(=O)N(c1ccc(Oc3ccc(Oc4ccc(N5C(=O)c6ccc(*)cc6C5=O)cc4C(F)(F)F)cc3)cc1)C2=O (repeat unit)
327.50 °C	*c1cccc(Cc2cccc(-n3c(=O)c4cc5c(=O)n(*)c(=O)c5cc4c3=O)c2)c1 (repeat unit)
214.00 °C	*c1ccc(OC(=O)c2ccc([Si](C)(C)c3ccc(C(=O)Oc4ccc(C5(*)OC(=O)c6ccccc65)cc4)cc3)cc2)cc1 (repeat unit)
191.00 °C	*Oc1ccc(C(c2ccc(OC(*)=S)cc2)c2cccc3ccccc23)cc1 (repeat unit)
109.00 °C	*CCOCCOCCN1C(=O)c2ccc(C(=O)Oc3ccc(-c4ccc(OC(=O)c5ccc6c(c5)C(=O)N(*)C6=O)cc4)cc3)cc2C1=O (repeat unit)
84.00 °C	*CC(*)c1ccc(B(O[Si](C)(C)C)O[Si](C)(C)C)cc1 (repeat unit)
272.00 °C	*c1ccc(NC(=O)c2ccc(C(=O)Nc3ccc(-c4nnc(*)o4)cc3)c(Oc3ccccc3)c2)cc1 (repeat unit)
334.00 °C	*C(=O)Nc1cc(NC(=O)c2ccc3[nH]c(-c4cc(-c5nc6cc(*)ccc6[nH]5)cc(N5C(=O)c6ccccc6C5=O)c4)nc3c2)cc(-c2nc3ccccc3[nH]2)c1 (repeat unit)
266.00 °C	*c1cccc(N2C(=O)c3cccc(Oc4ccc(S(=O)(=O)c5ccc(Oc6cccc7c6C(=O)N(*)C7=O)cc5)cc4)c3C2=O)c1 (repeat unit)
23.00 °C	*CC(*)c1ccc(CCC(F)(F)C(F)(F)C(F)(F)C(F)(F)F)cc1 (repeat unit)

Continued, compound first:

Compound	glass transition temperature
*Oc1ccc(-c2ccc(OC(*)(Oc3ccccc3)Oc3ccccc3)c(C)c2)cc1C (repeat unit)	125.00 °C
*c1c(C)cc(-c2cc(C)c(N3C(=O)c4cccc(Oc5c(C)cc(Cc6cc(C)c(Oc7cccc8c7C(=O)N(*)C8=O)c(C)c6)cc5C)c4C3=O)c(C)c2)cc1C (repeat unit)	276.00 °C
*/N=N/c1ccc([Te]c2ccc(*)cc2)cc1 (repeat unit)	300.00 °C
*CC(*)c1ccc(OP2(OCCOCCOCCOC)=NP(OCCOCCOCCOC)(OCCOCCOCCOC)=NP(OCCOCCOCCOC)(OCCOCCOCCOC)=N2)cc1 (repeat unit)	-46.00 °C
*CC(*)(C)C(=O)OCC1(C)COC(C)(C)OC1 (repeat unit)	108.00 °C
*C(=O)Nc1ccc(NC(=O)c2ccc3c(c2)C(=O)N(c2cccc(P(=O)(c4ccccc4)c4cccc(N5C(=O)c6ccc(*)cc6C5=O)c4)c2)C3=O)cc1 (repeat unit)	204.00 °C
*Oc1ccc(/N=C/C=N/c2ccc(OC(=O)NCCCCCCNC(*)=O)cc2)cc1 (repeat unit)	80.00 °C
*CC(*)C(N)=O (repeat unit) [Poly(acrylamide)]	178.92 ± 20 °C
*CC(CSC)O* (repeat unit)	-37.00 °C
*C(=O)c1ccc2c(c1)C(=O)N(c1cccc(P(=O)(c3cccc(N4C(=O)c5ccc(*)cc5C4=O)c3)c3cc(C(F)(F)F)cc(C(F)(F)F)c3)c1)C2=O (repeat unit)	243.00 °C
*CC(*)C(=O)OCCOC(F)(F)C(F)F (repeat unit)	-22.00 °C
